Test results published in article PMC9535023, “Inhibition of phospholipase D1 induces immunogenic cell death and potentiates cancer immunotherapy in colorectal cancer” (Experimental & Molecular Medicine, 2022).

Test system: DLD1 cells
Test: Apoptosis assay (annexin V flow cytometry), DLD1
Format: cell-based
Procedure: For cell cycle analysis, the cells were treated with Α3373 or 5-FU. The cells were labeled with 10 μΜ bromodeoxyuridine (BrdU) for 2 h. Subsequently, the cells were stained with 7-aminoactinomycin D (7-AAD, Invitrogen) and a fluorescein isothiocyanate (FITC)-conjugated anti-BrdU antibody (Invitrogen). Apoptotic cells were detected using an Annexin V-FITC Apoptosis Detection Kit (BD Biosciences). The cells were analyzed using BD FACSAria III (BD Biosciences), and data analysis was performed using FlowJo v10.0 (BD Biosciences).

In the case of `O=C(Nc1cc(C(F)(F)F)cc(C(F)(F)F)c1)c1cc2cc(F)ccc2[nH]1` [Compound A3373], the “apoptosis of CRC cells, in words” value is reported as “significantly promoted the apoptosis of CRC cells alone”.
